Data reported in ChEMBL document CHEMBL3885861, “Open TG-GATES”.

Species: Rattus norvegicus
Experiment: Open TG-GATES - Regimen: Single
Format: toxicity, organism-based, Sprague-Dawley
Parameters: regimen Single, gender Male, age 6 weeks
Settings: in vivo, po, 1000 mg/kg, route gavage, dose level High; for APTT / Bas / Eos / Fbg / Hb / Ht / Lym / MCH / MCHC / MCV / Mono / Neu / PT / Plat / RBC / Ret / WBC: tissue Blood; for KIDNEY_L / KIDNEY_R / KIDNEY_TOTAL: tissue Kidney; for LIVER: tissue Liver; for A/G / ALP / ALT / AST / BUN / CRE / Ca / Cl / DBIL / GLC / IP / K / LDH / Na / PL / RALB / TBIL / TC / TG / TP / gamma-GTP: tissue Plasma

CNC(=C[N+](=O)[O-])NCCSCc1ccc(CN(C)C)o1 [RANITIDINE]
TERMINAL_BW (9 h): 210.2 g
APTT (9 h): 20.1 s
Bas (9 h): 0%
Eos (9 h): 1%
Fbg (9 h): 242.2 mg/dL
Hb (9 h): 13.2 g/dL
Ht (9 h): 38%
Lym (9 h): 68.6%
MCH (9 h): 21.8 pg
MCHC (9 h): 34.8%
MCV (9 h): 62.5 fL
Mono (9 h): 2.4%
Neu (9 h): 24.2%
PT (9 h): 12.6 s
Plat (9 h): 111.9 x10_4/uL
RBC (9 h): 607.2 x10_4/ul
Ret (9 h): 7.3%
WBC (9 h): 74.1 x10_2/uL
KIDNEY_L (9 h): 1 g
KIDNEY_R (9 h): 1 g
KIDNEY_TOTAL (9 h): 1.9 g
LIVER (9 h): 9.2 g
A/G (9 h): 1.6
ALP (9 h): 955.2 IU/L
ALT (9 h): 36 IU/L
AST (9 h): 65.8 IU/L
BUN (9 h): 8.8 mg/dL
CRE (9 h): 0.3 mg/dL
Ca (9 h): 10.6 mg/dL
Cl (9 h): 103.8 meq/L
DBIL (9 h): 0.066 mg/dL
GLC (9 h): 197 mg/dL
IP (9 h): 8.6 mg/dL
K (9 h): 3.6 meq/L
LDH (9 h): 126 IU/L
Na (9 h): 140.8 meq/L
PL (9 h): 152 mg/dL
RALB (9 h): 3.4 g/dL
TBIL (9 h): 0.1 mg/dL
TC (9 h): 84.6 mg/dL
TG (9 h): 30.2 mg/dL
TP (9 h): 5.5 g/dL
gamma-GTP (9 h): 1.2 IU/L
TERMINAL_BW (24 h): 228.9 g
APTT (24 h): 20.1 s
Bas (24 h): 0.2%
Eos (24 h): 1%
Fbg (24 h): 235 mg/dL
Hb (24 h): 13.9 g/dL
Ht (24 h): 39.1%
Lym (24 h): 79%
MCH (24 h): 22.4 pg
MCHC (24 h): 35.5%
MCV (24 h): 63 fL
Mono (24 h): 3.2%
Neu (24 h): 15%
PT (24 h): 11.7 s
Plat (24 h): 122.4 x10_4/uL
RBC (24 h): 621.4 x10_4/ul
Ret (24 h): 5.9%
WBC (24 h): 75.4 x10_2/uL
KIDNEY_L (24 h): 1 g
KIDNEY_R (24 h): 1 g
KIDNEY_TOTAL (24 h): 2 g
LIVER (24 h): 10.7 g
A/G (24 h): 1.6
ALP (24 h): 881.6 IU/L
ALT (24 h): 33.2 IU/L
AST (24 h): 60.4 IU/L
BUN (24 h): 15.4 mg/dL
CRE (24 h): 0.4 mg/dL
Ca (24 h): 10.8 mg/dL
Cl (24 h): 101.6 meq/L
DBIL (24 h): 0.078 mg/dL
GLC (24 h): 204.2 mg/dL
IP (24 h): 7.9 mg/dL
K (24 h): 3.7 meq/L
LDH (24 h): 127.8 IU/L
Na (24 h): 140.4 meq/L
PL (24 h): 155.6 mg/dL
RALB (24 h): 3.4 g/dL
TBIL (24 h): 0.1 mg/dL
TC (24 h): 84.4 mg/dL
TG (24 h): 67.8 mg/dL
TP (24 h): 5.6 g/dL
gamma-GTP (24 h): 0.8 IU/L
